Results as given in publication PMC7226075, “A Novel Serine Protease Inhibitor PE-BBI Ameliorates Cockroach Extract-Mediated Airway Epithelial Barrier Dysfunction” (Biomolecules, 2020).
“Also recorded” adds a separate entry of the source.

Legend:
BEAS-2B cells = settings: ref [13], cited from earlier work
[1] = system: cockroach extract (CRE) trypsin-like protease (TLP) activity; assay: Inhibition of CRE trypsin-like protease (TLP) activity, fluorogenic peptide substrate-based assay; assay type: biochemical, German cockroach; settings: Boc-QAR-NH2Mec 50 µM, λex 380/λem 460 nm, 37 °C, 100 μL, inhibitors 0.01–10 μM, four-parameter logistic fit; mean (95% CI) in Figure 1B, n ≥ 4
Protocol: Whole-body German cockroach extract was sourced from Greer Laboratories (USA). All other reagents were obtained from Sigma-Aldrich unless otherwise indicated.
(§1) Cleavage of the fluorogenic peptide substrate Boc-QAR-NH2Mec (50 µM final concentration) (R&D Systems) was used to assay TLP activity with the rate of substrate hydrolysis continuously recorded at λex 380 nm and λem 460 nm using a FLUOstar Optima microplate reader (BMG Labtech). All inhibition assays were performed in microtitre plates maintained at 37 °C in a final volume of 100 μL. Curve fitting and pIC50 (-logIC50) determinations were carried out by fitting to a four-parameter logistic equation (GraphPad Prism).

[2] = system: 16HBE cell surface TLP activity; assay: 16HBE cell surface TLP activity assay; assay type: cell-based, human; settings: polarised 16HBE, inhibitor 50 µM, Boc-QAR-NH2Mec 50 µM apical, 1 h continuous, λex 380/λem 460 nm; n = 7, mean ± SEM
Protocol: Studies were performed using a SV-40-transformed human bronchial epithelial cell line (16HBE14o^-). The 16HBE cells were grown on collagen-coated T75 flasks (Corning) using bronchial epithelial growth medium (BEGM) (Lonza), in a humidified cell culture incubator supplemented with 5% CO2. After trypsinization, cells (5 × 10^5 cells/cm^2) were seeded onto semipermeable transwell filters (Corning) in BEGM and allowed to grow at liquid–liquid interface for 2 days then switched to DMEM/F-12 medium supplemented with 2% (v/v) Ultroser G (Pall-BioSpera) for a further 2 days (liquid–liquid interface), at which point cultures were exposed to air–liquid interface conditions for a further 5–7 day period, whereupon experiments were conducted.
Polarised 16HBE cells grown on transwell semi-permeable filters were used to assess cell surface TLP activity. Apical cell-surface (membrane-attached) proteolytic activity was measured in stringently washed (using PBS) cells via direct addition of a fluorogenic peptide substrate (50 µM Boc-QAR-–NH2Mec) to the apical compartment with continuous measurement of the formation of –NH2Mec (at λex 380 nm and λem 460 nm) over a 1 h period. Surface activity was determined in the presence and absence of protease inhibitors (GM, pLR-HL or PE-BBI) which were added at a final concentration of 50 µM.

recombinant trypsin = assay: Inhibition of recombinant trypsin, fluorogenic peptide substrate-based activity assay; assay type: biochemical; settings: Boc-QAR-NH2Mec 50 µM, λex 380/λem 460 nm, 37 °C, 100 μL, inhibitors 0.01–10 μM, four-parameter logistic fit; mean (95% CI) in Figure 1B, n ≥ 4
Protocol: as §1

16HBE cells = assay: Cell viability assay (RealTime-Glo MT), submerged 16HBE cells; assay type: cell-based, human; settings: CRE 16.5 µg protein/well, 24 h, inhibitor 50 µM, n = 6
Protocol: Cell viability was measured in submerged 16HBE cells using the non-lytic and homogeneous RealTime-Glo MT Cell Viability Assay (Promega) as per the manufacturer’s instructions.

CCOC(=O)c1ccc(OC(=O)CCCCCN=C(N)N)cc1.CS(=O)(=O)O [GM, gabexate mesylate]
CRE-induced airway epithelial cell damage in presence of GM (BEAS-2B cells; previous study): ameliorates CRE-induced airway epithelial cell damage
CRE-mediated cell damage and inflammation in presence of GM (BEAS-2B cells): reduced CRE-mediated cell damage and inflammation
pIC50 (-logIC50) vs CRE TLP activity [1]: ~ 6.7
Effect on 16HBE cell surface TLP activity [2]: significantly reduced
pIC50 (-logIC50) vs recombinant trypsin (recombinant trypsin): 6.76
Rescue of CRE-induced cell damage (viability) (16HBE cells): failed to do so; also recorded: trend towards modest protection of cells by GM, and pLR-HL, but this was not statistically significant
